From ChEMBL document CHEMBL3774317, “Design and synthesis of novel tamoxifen analogues that avoid CYP2D6 metabolism” (Eur J Med Chem, 2016) come the findings set out here.

Holding throughout (assay type): functional
The nature of assay [1]: Cytotoxicity against human SNB19 cells assessed as cell growth at 10^-6 M after 48 hrs by SRB assay. The conditions noted are these: SNB-19, 48 h, read-out: Activity. On the technique in general: In SRB staining, fixed cells bind dye roughly in proportion to their protein.
Assay [2] can be described thus: Cytotoxicity against human RPMI8226 cells assessed as cell growth at 10^-4 M after 48 hrs by SRB assay. The note with it: RPMI-8226, 48 h, read-out: Activity.
The test system of another assay is KM12. The experiment in a line: Cytotoxicity against human KM12 cells assessed as cell growth at 10^-6 M after 48 hrs by SRB assay. The conditions noted are these: KM12, 48 h, read-out: Activity.
Another assay has as its system T47D. The experiment in a line: Cytotoxicity against human T47D cells assessed as cell growth at 10^-4 M after 48 hrs by SRB assay. The conditions noted are these: read-out: Activity.
Assay [3] in a line: Cytotoxicity against human HCT15 cells assessed as cell growth at 10^-6 M after 48 hrs by SRB assay. The note with it: HCT-15, 48 h, read-out: Activity.
The nature of assay [4]: Cytotoxicity against human OVCAR4 cells assessed as cell growth at 10^-4 M after 48 hrs by SRB assay. The conditions noted are these: OVCAR-4, 48 h, read-out: Activity.
Assay [5] can be described thus: Cytotoxicity against human SNB75 cells assessed as cell growth at 10^-5 M after 48 hrs by SRB assay. The conditions noted are these: SNB-75, 48 h, read-out: Activity.
A short description of assay [6]: Cytotoxicity against human SF268 cells assessed as cell growth at 10^-6 M after 48 hrs by SRB assay. The note with it: SF-268, 48 h, read-out: Activity.
Another assay has as its system ACHN. The experiment in a line: Cytotoxicity against human ACHN cells assessed as cell growth at 10^-4 M after 48 hrs by SRB assay. The conditions noted are these: read-out: Activity.
Assay [7] in a line: Cytotoxicity against human UACC62 cells assessed as cell growth at 10^-5 M after 48 hrs by SRB assay. The conditions noted are these: UACC-62, 48 h, read-out: Activity.
Assay [8] in a line: Cytotoxicity against human SF539 cells assessed as cell growth at 10^-5 M after 48 hrs by SRB assay. The conditions noted are these: SF-539, 48 h, read-out: Activity.
The next assay relates to NCI-H226. The experiment in a line: Cytotoxicity against human NCI-H226 cells assessed as cell growth at 50 nM after 48 hrs by SRB assay. The note with it: NCI-H226, 48 h, read-out: Activity.
The subject of another assay is Malme-3M. As to the kind of experiment: Cytotoxicity against human MALME-3M cells assessed as cell growth at 50 uM after 48 hrs by SRB assay. The conditions noted are these: read-out: Activity.
Assay [9] can be described thus: Cytotoxicity against human SNB75 cells assessed as cell growth at 50 nM after 48 hrs by SRB assay. The conditions noted are these: SNB-75, 48 h, read-out: Activity.
Assay [10] is described as follows: Cytotoxicity against human SNB19 cells assessed as cell growth at 50 nM after 48 hrs by SRB assay. The note with it: SNB-19, 48 h, read-out: Activity.
A short description of assay [11]: Cytotoxicity against human OVCAR3 cells assessed as cell growth at 5 uM after 48 hrs by SRB assay. The conditions noted are these: OVCAR-3, 48 h, read-out: Activity.
Assay [12] in a line: Cytotoxicity against human NCI-ADR-RES cells assessed as cell growth at 50 nM after 48 hrs by SRB assay. The conditions noted are these: read-out: Activity.
A further assay concerns K562. The experiment in a line: Cytotoxicity against human K562 cells assessed as cell growth at 50 nM after 48 hrs by SRB assay. The note with it: K562, 48 h, read-out: Activity.
Assay [13] in a line: Cytotoxicity against human SW620 cells assessed as cell growth at 50 uM after 48 hrs by SRB assay. The note with it: SW-620, 48 h, read-out: Activity.
Assay [14] in a line: Cytotoxicity against human HCT15 cells assessed as cell growth at 5 nM after 48 hrs by SRB assay. The conditions noted are these: HCT-15, 48 h, read-out: Activity.
For another assay, the system named is SN12C. As to the kind of experiment: Cytotoxicity against human SN12C cells assessed as cell growth at 50 nM after 48 hrs by SRB assay. The note with it: read-out: Activity.
The nature of assay [15]: Cytotoxicity against human Hs 578T cells assessed as cell growth at 5 uM after 48 hrs by SRB assay. The note with it: read-out: Activity.
The nature of assay [16]: Cytotoxicity against human OVCAR5 cells assessed as cell growth at 5 uM after 48 hrs by SRB assay. The conditions noted are these: OVCAR-5, 48 h, read-out: Activity.
The nature of assay [17]: Cytotoxicity against human SF268 cells assessed as cell growth at 50 nM after 48 hrs by SRB assay. The note with it: SF-268, 48 h, read-out: Activity.
The next assay concerns A498. The experiment in a line: Cytotoxicity against human A498 cells assessed as cell growth at 5 uM after 48 hrs by SRB assay. The conditions noted are these: A498, 48 h, read-out: Activity.
Assay [18] is described as follows: Cytotoxicity against human SKOV3 cells assessed as cell growth at 50 uM after 48 hrs by SRB assay. The conditions noted are these: SK-OV-3, 48 h, read-out: Activity.
For another assay, the system named is NCI-H522. The experiment in a line: Cytotoxicity against human NCI-H522 cells assessed as cell growth at 5 nM after 48 hrs by SRB assay. The note with it: NCI-H522, 48 h, read-out: Activity.
Another assay relates to CCRF-CEM. As to the kind of experiment: Cytotoxicity against human CCRF-CEM cells assessed as cell growth at 50 nM after 48 hrs by SRB assay. The conditions noted are these: read-out: Activity.

Each structure is given as a SMILES string.

As to `C/C(=C(/c1ccc(O)cc1)c1ccc(OCCN2CCCC2)cc1)c1ccccc1`, the growth at 1 µM stood at 104% in assay [1], 95% with KM12, 81% in [3] and 88% in [6]. In addition, the growth at 100 µM in assay [2] is -57%; in the assay with T47D, -67%; in [4], -96%; in the assay with ACHN, -91%. The growth at 10 µM in assay [5] was 23%; in [7] it was -51%; in assay [8], -67%.
Consider `CCCCCCCCCC(=O)Oc1ccc(/C(=C(/C)c2ccccc2)c2ccc(OCCN3CCCC3)cc2)cc1`, for which the growth at 0.05 µM with NCI-H226 was 94%; in assay [9] it was 83%; in assay [10] it was 98%; in assay [12], 96%; in the assay on K562 it was 95%; in the assay with SN12C, 101%. Further, the growth at 0.05 µM in assay [17] stood at 97%; with CCRF-CEM it was 100%. Also, the growth at 50 µM with Malme-3M was -82%; in assay [13], -97%; in assay [18], -88%. Also, the growth at 5 µM in assay [11] was determined as 86%; in assay [15], 77%; in [16], 91%; with A498, 64%. The growth at 0.005 µM in assay [14] worked out at 98%; with NCI-H522, 101%.
